Laboratory results reported in PMC11017246, “Discovery of GLPG2737, a Potent Type 2 Corrector of CFTR for the Treatment of Cystic Fibrosis in Combination with a Potentiator and a Type 1 Co-corrector” (Journal of Medicinal Chemistry, 2024).
Where two headings read alike, the source gives them in different places.

Experiments:
[1] = molecular target: T1, ΔF508 CFTR (Homo sapiens, UniProt P13569, DEL508-508); test: CSE-HRP: cell surface expression horseradish peroxidase assay in CFBE41o- cells; type: cell-based; settings: for Emax: CFBE41o-
T1 construct: host or cells: CFBE41o- TetON cells, expression induced with doxycycline
Protocol: A CFBE41o– cell line stably expressing ΔF508 CFTR harboring an HRP-tag in the fourth extracellular loop was obtained from Professor Gergely Lukacs (Department of Physiology, McGill University, Montreal, QC, Canada).[25] Cells were grown in Eagle’s minimal essential medium (Life Technologies) supplemented with 10% FBS, 1% L-glutamine (Life Technologies), 10 mM HEPES (Life Technologies), 200 μg/mL Geneticin (Life Technologies), and 3 μg/mL puromycin (Sigma) in culture flasks coated with 0.01% bovine serum albumin (BSA) (Sigma), 30 μg/mL Purecol (Nutacon), and 0.001% human fibronectin (Sigma).
CFBE41o– TetON cells expressing HRP tagged ΔF508-CFTR were seeded in white 384-well plates (Greiner) at a density of 2000 cells per well. Medium containing 500 ng/mL doxycycline was used to induce expression of ΔF508-CFTR-HRP. After 3 days, cells were treated with corrector or potentiator compounds and transferred to an incubator at 33 °C. On day 4, cells were washed five times with PBS containing Ca^2+ and Mg^2+ using a Bio-Tek plate washer and incubated with a chemiluminescent HRP substrate (SuperSignal West Pico Chemiluminescent Substrate, Thermo Scientific) for 15 min. Chemiluminescence was measured using an Envision plate reader (PerkinElmer). Dose response data was fitted using a 4 parameter hill function of the form Response = neg control + (pos control – neg control)/(1 + 10^(log EC50-concentration)/HillSlope) to determine EC50 values. Percentage efficacy was calculated using the following formula: (max response – neg control)/(C1 response – neg control).

[2] = Plasma protein binding, human; type: in vitro ADME; settings: human, plasma, pH 7.4, human plasma; read-out: PPB % human (converted)
Protocol: (§1) Plasma protein binding was determined by equilibrium dialysis using the Pierce Red Device plate with inserts (ThermoScientific). Test compound at 5 μM (0.5% DMSO) spiked in freshly thawed human, rat, mouse, or dog plasma (Bioreclamation INC, Westbury, NY, USA) was dialyzed against phosphate-buffered saline (PBS, pH 7.4) at 37 °C under shaking for 4 h. Aliquots were taken from each side of the well, and matrix matched. Proteins were precipitated with an excess of acetonitrile, samples were mixed and centrifuged, and the supernatant was analyzed by liquid chromatography–mass spectrometry/mass spectrometry (LC–MS/MS). Addition of compound peak areas in the buffer chamber and the plasma chamber was considered to be 100% compound.

[3] = PK rat; type: in vivo
Protocol: These studies were performed with naïve male Sprague–Dawley rats (Janvier France, 6–8 weeks old). Rats were dosed iv via a bolus in the tail vein with a dose level of 0.1 mg/kg or orally as a single esophageal gavage with a dose level of 5 mg/kg. For the iv route, the compound was formulated in PEG200/water (60/40; v/v). For the oral route, the compound was formulated in MC 0.5% (2/98) as a homogeneous suspension. Before the oral dosing, the animals were deprived of food for at least 12 h before compound administration until 3 h after administration. All animals had free access to the tap water. Blood samples were collected under light anesthesia and placed into tubes containing Li-heparin as an anticoagulant. Blood samples were collected up to 24 h after dosing (n = 3 rats per route). After centrifugation, the resulting plasma samples were assayed by LC-MS/MS with a nongood laboratory practice (non-GLP)-validated method. PK parameters were calculated by noncompartmental analysis using WinNonlin software (Certara, Princeton, NJ, USA).

[4] = Plasma protein binding, rat; type: in vitro ADME; settings: pH 7.4, read-out: PPB % rat (converted)
Protocol: as §1

[5] = molecular target: T1, ΔF508 CFTR; test: TECC (transepithelial clamp circuit) in primary CF-derived HBE cells; type: cell-based; settings: for Emax: read-out: TECC HBE with GLPG2222 % max activation
Protocol: Bronchial epithelial cells isolated from the lungs of patients with CF homozygous for the ΔF508 CFTR mutation were obtained from McGill University (Montreal, QC, Canada) or the University of North Carolina (Chapel Hill, NC, United States). Cells were isolated from lungs obtained from donors undergoing planned transplantation. These primary cells were cultured directly on type IV collagen-coated polycarbonate Transwell supports with a diameter of 6.5 mm and pore size of 0.4 μm (Costar, #3397) for 18–25 days in an air–liquid interface, essentially as previously described for TECC.[23]
Twenty-four hours prior to the electrophysiological recording, corrector and/or potentiator compounds were added on both the apical and basolateral sides. TECC recordings were performed by using the TECC instrument developed and sold by EP Design (Bertem, Belgium). During the recording, the epithelial cells were bathed in a NaCl-Ringer solution (120 mM NaCl, 20 mM HEPES, 1.2 mM CaCl2, 1.2 mM MgCl2, 0.8 mM KH2PO4, 0.8 mM K2HPO4, 5 mM glucose, pH 7.4) on both the basolateral (640 μL) and the apical (160 μL) sides and kept at 37 °C. Corrector and potentiator compounds were readded at the same concentration used during the 24 h pretreatment. Apical amiloride was used to inhibit the endogenous ENaC currents (100 μM), while forskolin (10 μM) was applied on both the apical and basolateral sides to stimulate CFTR. Measurements were done during a 20 min time frame with recordings every 2 min. The transepithelial potential and transepithelial resistance were measured in an open circuit and transformed to Ieq using Ohm’s law. The maximal increase in Ieq (ΔIeq, the difference in current before and after forskolin or potentiator treatment) was used as a measure for the increased CFTR activity. EC50 values were generated by measuring the impact of different concentrations of compounds on ΔIeq in primary cells. For this purpose, each transwell was treated with a different compound concentration. CFTRInh-172 was added apically at 10 μM to assess the specificity of the response. Dose response data was fitted using a 3-parameter hill function of the form Response = Bottom + (Top – Bottom)/(1 + (EC50/concentration)) to determine EC50 values. Percentage efficacy was calculated using the following formula: (max response – neg control)/(C1 response – neg control).

[6] = Hepatocyte stability, rat; type: in vitro ADME; settings: pooled cryopreserved hepatocytes in suspension, read-out: Hep CLint,u rat (converted)
Protocol: The hepatocyte stability assay was performed by incubation of test compound at 1 μM, 0.03% DMSO in modified Krebs–Henseleit buffer with suspension of pooled cryopreserved hepatocytes (BioIVT, Hicksville, NY, USA) from mouse, rat, dog, or human (BioIVT, Hicksville, NY, USA) at 0.5 million viable hepatocytes/mL. Before adding the hepatocytes (time zero) and after 10, 20, 45, 90, 120, and 180 min of incubation (n = 2) at 37 °C while gently shaking, the reaction was stopped and proteins were precipitated with an excess of acetonitrile containing an internal standard. The samples were mixed, centrifuged, and filtered, and the supernatant was analyzed by liquid chromatography–mass spectrometry/mass spectrometry (LC–MS/MS). The instrument responses (peak areas/IS peak areas) were referenced to the zero-time point samples (considered as 100%) in order to determine the percentage of compound remaining.

[7] = no additional corrector, relative to lumacaftor or 5 (3 μM) positive control, read-out: CSE-HRP % max activation
[8] = no additional corrector, 24 h incubation, 33 °C, geometric mean, read-out: CSE-HRP EC50
[9] = in the presence of C1 corrector 5, relative to 5 (3 μM) positive control, read-out: CSE-HRP with 5 % max activation
[10] = in the presence of C1 corrector 5, read-out: CSE-HRP with 5 EC50

T1 sequence (P13569 with tags, fused parts or gaps DEL508-508): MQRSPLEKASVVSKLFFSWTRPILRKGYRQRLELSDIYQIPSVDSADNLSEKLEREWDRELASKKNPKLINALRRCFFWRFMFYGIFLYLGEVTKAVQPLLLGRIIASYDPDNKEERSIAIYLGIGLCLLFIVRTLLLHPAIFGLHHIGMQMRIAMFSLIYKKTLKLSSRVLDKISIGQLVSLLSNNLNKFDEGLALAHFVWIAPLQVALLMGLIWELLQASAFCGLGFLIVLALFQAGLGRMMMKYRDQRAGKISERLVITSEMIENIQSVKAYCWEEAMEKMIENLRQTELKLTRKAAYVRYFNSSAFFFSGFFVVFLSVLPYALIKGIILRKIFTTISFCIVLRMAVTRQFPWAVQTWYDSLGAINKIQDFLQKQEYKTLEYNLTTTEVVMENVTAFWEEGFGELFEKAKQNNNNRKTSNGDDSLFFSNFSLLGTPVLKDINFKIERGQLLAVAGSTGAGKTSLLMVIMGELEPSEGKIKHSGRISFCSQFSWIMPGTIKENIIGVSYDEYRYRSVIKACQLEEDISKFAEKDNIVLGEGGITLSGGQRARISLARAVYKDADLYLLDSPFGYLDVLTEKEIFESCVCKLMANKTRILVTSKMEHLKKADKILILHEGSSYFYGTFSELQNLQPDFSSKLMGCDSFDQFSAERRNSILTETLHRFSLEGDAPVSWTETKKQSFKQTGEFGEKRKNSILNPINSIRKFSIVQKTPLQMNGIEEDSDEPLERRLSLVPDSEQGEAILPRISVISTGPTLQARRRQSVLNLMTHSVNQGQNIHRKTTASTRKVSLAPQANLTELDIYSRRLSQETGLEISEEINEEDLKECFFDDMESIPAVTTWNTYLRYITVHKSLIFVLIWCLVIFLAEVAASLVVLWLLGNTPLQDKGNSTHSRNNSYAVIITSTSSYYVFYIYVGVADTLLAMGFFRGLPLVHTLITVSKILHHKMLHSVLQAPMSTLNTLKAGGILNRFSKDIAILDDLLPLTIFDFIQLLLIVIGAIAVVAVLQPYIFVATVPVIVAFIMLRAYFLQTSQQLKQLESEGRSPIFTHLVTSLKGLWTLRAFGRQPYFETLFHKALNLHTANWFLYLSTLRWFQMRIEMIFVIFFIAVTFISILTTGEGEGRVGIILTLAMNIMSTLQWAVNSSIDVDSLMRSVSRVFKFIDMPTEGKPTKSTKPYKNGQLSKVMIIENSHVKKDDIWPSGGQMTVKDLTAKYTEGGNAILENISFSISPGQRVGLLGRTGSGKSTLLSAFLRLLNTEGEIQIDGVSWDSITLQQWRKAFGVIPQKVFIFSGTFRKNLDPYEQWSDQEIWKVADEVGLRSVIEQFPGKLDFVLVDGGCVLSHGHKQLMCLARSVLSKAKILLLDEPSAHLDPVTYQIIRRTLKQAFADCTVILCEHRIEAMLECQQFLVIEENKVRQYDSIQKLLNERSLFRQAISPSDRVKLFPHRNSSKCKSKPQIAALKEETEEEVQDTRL

| SMILES | Emax [1, 7] | EC50 [1, 8] | also measured |
| --- | --- | --- | --- |
| Cc1nn(C2CCN(C)CC2)c2nc(C(=O)O)cc(-c3ccc(N4CCOCC4)cc3)c12 [Compound 14] | -2% | 10 µM |  |
| O=C(O)c1cc(-c2ccc(N3CCOCC3)cc2)c2cnn(-c3ccccc3)c2n1 [Compound 15] | 116% | 1.27 µM |  |
| O=C(O)c1cc(-c2ccc(N3CCOCC3)cc2)c2c(C3CCC3)nn(-c3ccccc3)c2n1 [Compound 18] |  |  | fraction unbound at 4 h, 5 μM [2]: 0.01; clearance ([3]; male, Sprague-Dawley, plasma, 1 mg/kg, iv dosing, read-out: plasma clearance (converted)): 0.2 L/h/kg; clearance ([3]; male, Sprague-Dawley, plasma, iv, 0.1 mg/kg, formula-strings file, unit inferred, read-out: Cl (converted)): 0.2 L/h/kg; Vd ([3]; male, Sprague-Dawley, plasma, iv, 0.1 mg/kg, formula-strings file, unit inferred, read-out: Vss): 0.474 L/kg; Vd ([3]; male, Sprague-Dawley, plasma, iv, 1 mg/kg, 1 mg/kg iv, read-out: Vss): 0.474 L/kg |
| COCCNc1ccc(-c2cc(C(=O)O)nc3c2c(C)nn3-c2ccccc2)cc1 [Compound 24] | 175% | 2.12 µM |  |
| COCCN(C)c1ccc(-c2cc(C(=O)O)nc3c2c(C)nn3-c2ccccc2)cc1 [Compound 25] | 204% | 1.49 µM |  |
| COc1cc(-c2cc(-c3ccc(N4CCOCC4)cc3)c3c(C)nn(-c4ccccc4)c3n2)n[nH]1 [Compound 34] | 4% | 10 µM |  |
| CS(=O)(=O)NC(=O)c1cc(-c2ccc(N3CCOCC3)cc2)c2c(C3CCC3)nn(-c3ccccc3)c2n1 [Compound 39] |  |  | fraction unbound at 4 h, 5 μM [2]: 0.0005 |
| COCCN(C)c1ccc(-c2cc(C(=O)O)nc3c2c(C2CCC2)nn3-c2ccccc2)cc1 [Compound 40] | 173% | 0.542 µM | Emax [1, 9]: 325%; EC50 [1, 10]: 0.448 µM |
| COCCN(C)c1ccc(-c2cc(C(=O)O)nc3c2c(C2CCC2)nn3-c2ccccc2)cn1 [Compound 42] | 191% | 0.529 µM | Emax [1, 9]: 417%; EC50 [1, 10]: 0.483 µM |
| CS(=O)(=O)NC(=O)c1cc(N2CCCCC2)c2c(C3CCC3)nn(-c3ccccc3)c2n1 [Compound 46] |  |  | fraction unbound at 4 h, 5 μM [4]: 0.001; fraction unbound at 4 h, 5 μM [2]: < 0.001 |
| COC1CCN(c2cc(C(=O)NS(C)(=O)=O)nc3c2c(C2CCC2)nn3-c2ccccc2)CC1 [Compound 47] |  |  | fraction unbound at 4 h, 5 μM [4]: 0.002; fraction unbound at 4 h, 5 μM [2]: 0.002 |
| CS(=O)(=O)NC(=O)c1cc(N2CCC(C#N)CC2)c2c(C3CCC3)nn(-c3ccccc3)c2n1 [Compound 48] |  |  | fraction unbound at 4 h, 5 μM [4]: 0.003; Emax ([5]; primary ΔF508 homozygous HBE cells, 24 h incubation, with GLPG2222): 265%; EC50 ([5]; primary ΔF508 homozygous HBE cells, 24 h incubation, with GLPG2222, read-out: TECC HBE with GLPG2222 EC50): 0.06 µM; fraction unbound at 4 h, 5 μM [2]: 0.003 |
| CS(=O)(=O)NC(=O)c1cc(N2CCC(N3CCOCC3)CC2)c2c(C3CCC3)nn(-c3ccc(F)cc3)c2n1 [Compound 50] |  |  | CLint scaled at 1 μM [6]: < 0.69 L/h/kg; fraction unbound at 4 h, 5 μM [4]: 0.009; Emax ([5]; HBE, footnote b: after 24 h incubation a fixed 1 μM C2 corrector concentration was added during the recording): 410%; EC50 ([5]; footnote b: after 24 h incubation a fixed 1 μM C2 corrector concentration was added during the recording, read-out: TECC HBE with GLPG2222 EC50): 0.046 µM; fraction unbound at 4 h, 5 μM [2]: 0.013; CLu rat ([3]; iv, unbound clearance): 12.3 L/h/kg; clearance ([3]; male, Sprague-Dawley, plasma, 0.1 mg/kg, iv, read-out: CLp rat (converted)): 0.11 L/h/kg; half-life ([3]; male, Sprague-Dawley, plasma, 0.1 mg/kg, iv, read-out: t1/2 iv rat (converted)): 3.31 h; Vd ([3]; male, Sprague-Dawley, plasma, iv, 0.1 mg/kg, iv, read-out: Vss rat): 0.47 L/kg |
| CC1(C)Cc2c(sc(NC(=O)c3ccn[nH]3)c2C(N)=O)C(C)(C)O1 [GLPG1837, reference compound] |  |  | fold ([5]; no C2 corrector (reference)): 1 fold; EC50 ([5]; no C2 corrector, C1 corrector GLPG2222 (4) 0.15 μM, read-out: EC50 of potentiator GLPG1837): 0.013 µM |

Second part, led by results:

| Emax [1, 7] | EC50 [1, 8] | SMILES | also measured |
| --- | --- | --- | --- |
| 184% | 0.448 µM | CC(C)c1nn(-c2ccccc2)c2nc(C(=O)O)cc(-c3ccc(N4CCOCC4)cc3)c12 [Compound 16] |  |
| 8.2% | 10 µM | CC(=O)c1cc(-c2ccc(N3CCOCC3)cc2)c2c(C)nn(-c3ccccc3)c2n1 [Compound 29] |  |
| 15% | 10 µM | Cc1nn(-c2ccccc2)c2nc(CO)cc(-c3ccc(N4CCOCC4)cc3)c12 [Compound 30] |  |
| 8.8% | 10 µM | Cc1nn(-c2ccccc2)c2nc(C(C)O)cc(-c3ccc(N4CCOCC4)cc3)c12 (centres unmarked) [Compound 31] |  |
| 5% | 10 µM | Cc1nn(-c2ccccc2)c2nc(C(C)(C)O)cc(-c3ccc(N4CCOCC4)cc3)c12 [Compound 32] |  |
| 7% | 10 µM | Cc1nn(-c2ccccc2)c2nc(C(=O)NCC(F)(F)F)cc(-c3ccc(N4CCOCC4)cc3)c12 [Compound 33] |  |
| 24% | 10 µM | Cc1nn(-c2ccccc2)c2nc(CC(=O)O)cc(-c3ccc(N4CCOCC4)cc3)c12 [Compound 35] |  |
| 96% | 2.98 µM | Cc1nn(-c2ccccc2)c2nc(C(=O)NC#N)cc(-c3ccc(N4CCOCC4)cc3)c12 [Compound 36] |  |
